Laboratory results reported in PMC4256409, “Role of Phenylalanine and Valine^10 Residues in the Antimicrobial Activity and Cytotoxicity of Piscidin-1” (PLoS ONE, 2014).
Where no end group is shown, it is not given here.

Legend:
P. aeruginosa KCTC1637 = format: cell-based, Pseudomonas aeruginosa; details: KCTC1637, 16 h
Method: (§1) The antimicrobial activities of the peptides against selected organisms, including three Gram-positive, three Gram-negative, and five antibiotic-resistant bacteria, were determined using a broth microdilution assay. Briefly, single colonies of bacteria and fungi were inoculated into Luria-Bertani (LB) medium and cultured overnight at 37°C. An aliquot of the culture was transferred to 10 mL of fresh LB and incubated for an additional 3–5 h at 37°C until it reached the mid-logarithmic phase. Two-fold serial dilutions of the peptides in 1% peptone were prepared. The serial dilutions (100 µL) were added to 100 µL of cells (2×10^6 colony-forming units (CFU)/mL) in 96-well microtiter plates and incubated at 37°C for 16 h. […] MIC values were calculated as the average of triplicate measurements from three independent assays.

MDRST CCARM 8007 = format: cell-based, multidrug-resistant S. typhimurium; details: broth microdilution, 37°C, 16 h, three independent experiments in triplicate, SD 14.0%
Excerpt: (§2) Escherichia coli KCTC 1682, E. coli KCTC 2593, E. coli KCTC 2571, Salmonella typhimurium KCTC 1926, Pseudomonas aeruginosa KCTC 1637, P. aeruginosa KCTC 2004, P. aeruginosa KCTC 2513, Bacillus subtilis KCTC 3068, B. subtilis KCTC 1021, B. subtilis KCTC 1022, Staphylococcus epidermidis KCTC 1917, Staphylococcus aureus KCTC 1621, S. aureus KCTC 1916, and S. aureus KCTC 3881 were purchased from the Korean Collection for Type Cultures, Korea Research Institute of Bioscience & Biotechnology (Taejon, Korea). Methicillin-resistant S. aureus (MRSA) (CCARM 3089, CCARM 3090, CCARM 3108, CCARM 3114, and CCARM 3126), multidrug-resistant E. coli (MDREC) (CCARM 1229 and CCARM 1238), multidrug-resistant S. typhimurium (MDRST) (CCARM 8003, CCARM 8007, and CCARM 8009), multidrug-resistant Acinetobacter baumanii (MDRAB) (CCARM 12005, CCARM 12035, CCARM 12036, CCARM 12037), and multidrug-resistant P. aeruginosa (MDRPA) (CCARM 2002, CCARM 2003, CCARM 2095, and CCARM 2163) were obtained from the Culture Collection of Antibiotic-Resistant Microbes (CCARM) at Seoul Women’s University in Korea. The antimicrobial activities of the peptides against selected organisms, including three Gram-positive, three Gram-negative, and five antibiotic-resistant bacteria, were determined using a broth microdilution assay. Briefly, single colonies of bacteria and fungi were inoculated into Luria-Bertani (LB) medium and cultured overnight at 37°C. An aliquot of the culture was transferred to 10 mL of fresh LB and incubated for an additional 3–5 h at 37°C until it reached the mid-logarithmic phase. Two-fold serial dilutions of the peptides in 1% peptone were prepared. The serial dilutions (100 µL) were added to 100 µL of cells (2×10^6 colony-forming units (CFU)/mL) in 96-well microtiter plates and incubated at 37°C for 16 h. […] MIC values were calculated as the average of triplicate measurements from three independent assays.

B. subtilis KCTC1022 = format: cell-based, Bacillus subtilis; details: KCTC1022, 16 h
[1] = system: Drug-resistant bacterial strains; details: average over the 18 drug-resistant bacterial strains of Table 3
How it was run: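 Broth microdilution: mid-log bacteria grown in LB, 2×10^6 CFU/mL, mixed 1:1 with two-fold peptide dilutions in 1% peptone, 16 h at 37°C. Strains include KCTC reference isolates and CCARM MRSA and multidrug-resistant E. coli, S. typhimurium, A. baumanii, P. aeruginosa; MIC averaged from triplicates over three independent assays.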

MDRPA CCARM 2003 = format: cell-based, multidrug-resistant P. aeruginosa; details: broth microdilution, 37°C, 16 h, three independent experiments in triplicate, SD 14.0%
P. aeruginosa KCTC2004 = format: cell-based, Pseudomonas aeruginosa; details: KCTC2004, 16 h
Method: as §1

MRSA CCARM 3126 = format: cell-based, Methicillin-resistant S. aureus; details: CCARM 3126, 16 h
Excerpt: as §2

E.coli KCTC2571 = format: cell-based, Escherichia coli; details: KCTC2571, 16 h
MDRAB CCARM 12036 = format: cell-based, multidrug-resistant Acinetobacter baumanii; details: broth microdilution, 37°C, 16 h, three independent experiments in triplicate, SD 14.0%
Method: as §1

B. subtilis KCTC1021 = format: cell-based, Bacillus subtilis; details: KCTC1021, 16 h
MDRPA CCARM 2095 = format: cell-based, multidrug-resistant P. aeruginosa; details: broth microdilution, 37°C, 16 h, three independent experiments in triplicate, SD 14.0%
P. aeruginosa KCTC2513 = format: cell-based, Pseudomonas aeruginosa; details: KCTC2513, 16 h
Method: as §1

MRSA CCARM 3090 = format: cell-based, Methicillin-resistant S. aureus; details: CCARM 3090, 16 h
Excerpt: as §2

MDRAB CCARM 12005 = format: cell-based, multidrug-resistant Acinetobacter baumanii; details: broth microdilution, 37°C, 16 h, three independent experiments in triplicate, SD 14.0%
Method: as §1

S. epidermidis KCTC1917 = format: cell-based, Staphylococcus epidermidis; details: KCTC1917, 16 h
S. aureus KCTC1916 = format: cell-based, Staphylococcus aureus; details: KCTC1916, 16 h
Method: as §1

MDRST CCARM 8003 = format: cell-based, multidrug-resistant S. typhimurium; details: broth microdilution, 37°C, 16 h, three independent experiments in triplicate, SD 14.0%
Excerpt: as §2

S. aureus KCTC3881 = format: cell-based, Staphylococcus aureus; details: KCTC3881, 16 h
Excerpt: as §2

S. typhimurium KCTC1926 = format: cell-based, Salmonella typhimurium; details: KCTC1926, 16 h
Method: as §1

MRSA CCARM3089 = format: cell-based, Methicillin-resistant S. aureus; details: CCARM3089, 16 h
Excerpt: as §2

MDRST CCARM 8009 = format: cell-based, multidrug-resistant S. typhimurium; details: broth microdilution, 37°C, 16 h, three independent experiments in triplicate, SD 14.0%
B. subtilis KCTC3068 = format: cell-based, Bacillus subtilis; details: KCTC3068, 16 h
MDREC CCARM 1229 = format: cell-based, multidrug-resistant E. coli; details: broth microdilution, 37°C, 16 h, three independent experiments in triplicate, SD 14.0%
Method: as §1

S. aureus KCTC1621 = format: cell-based, Staphylococcus aureus; details: KCTC1621, 16 h
MDRAB CCARM 12037 = format: cell-based, multidrug-resistant Acinetobacter baumanii; details: broth microdilution, 37°C, 16 h, three independent experiments in triplicate, SD 14.0%
Method: as §1

MDRPA CCARM 2163 = format: cell-based, multidrug-resistant P. aeruginosa; details: broth microdilution, 37°C, 16 h, three independent experiments in triplicate, SD 14.0%
Method: as §1

MDRPA CCARM 2002 = format: cell-based, multidrug-resistant P. aeruginosa; details: broth microdilution, 37°C, 16 h, three independent experiments in triplicate, SD 14.0%
Method: as §1

[2] = system: Standard bacterial strains; format: cell-based; details: average over the 14 standard bacterial strains of Table 2
E. coli KCTC1682 = format: cell-based, Escherichia coli; details: KCTC1682, 16 h
Method: as §1

MDRAB CCARM 12035 = format: cell-based, multidrug-resistant Acinetobacter baumanii; details: broth microdilution, 37°C, 16 h, three independent experiments in triplicate, SD 14.0%
Method: as §1

MRSA CCARM 3114 = format: cell-based, Methicillin-resistant S. aureus; details: CCARM 3114, 16 h
MRSA CCARM 3108 = format: cell-based, Methicillin-resistant S. aureus; details: CCARM 3108, 16 h
Excerpt: as §2

E. coli KCTC2593 = format: cell-based, Escherichia coli; details: KCTC2593, 16 h
Excerpt: as §2

MDREC CCARM 1238 = format: cell-based, multidrug-resistant E. coli; details: broth microdilution, 37°C, 16 h, three independent experiments in triplicate, SD 14.0%
[3] = system: human red blood cells (hRBCs); test: Hemolysis; format: cell-based
Method: The hemolytic ability of the peptides was tested using hRBCs. FreshhRBCs were washed three times with phosphate-buffered saline (PBS) (35 mM phosphate buffer containing 150 mM NaCl, pH 7.4), centrifuged for 10 min at 1000×g, and resuspended in PBS. The peptide solutions were then added to 50 µL of hRBCs in PBS to yield a final volume of 100 µL and a final erythrocyte concentration of 4% (v/v). The resulting suspension was incubated with agitation for 1 h at 37°C. The samples were centrifuged at 1000×g for 5 min. Hemoglobin release was monitored by measuring the absorbance of the supernatant at 405 nm. Controls for zero hemolysis (blank) and 100% hemolysis consisted of hRBCs suspended in PBS and 0.1% Triton-X 100, respectively. The percentage of hemolysis was calculated using the following equation: [drawing 1]

NIH3T3 cells = test: Cytotoxicity, MTT assay; format: cell-based, mouse; details: 1 d
Method: The mouse embryonic fibroblast-derived cell line NIH3T3 was purchased from the American Type Culture Collection (Manassas, VA). Cells were cultured in Dulbecco’s modified Eagle medium (DMEM) supplemented with 10% fetal bovine serum (FBS) and antibiotic solution (100 units/mL penicillin and 100 µg/mL streptomycin) at 37°C in a humidified 5% CO2 atmosphere. Cultures were passaged every 2–3 days by brief trypsin treatment and visualized with an inverted microscope. The cytotoxicity of peptides against mammalian cells was determined using a 3-(4,5-dimethylthiazol-2-yl)-2,5-diphynyltetrazolium bromide (MTT) assay. Cells were seeded on 96-well microplates at a density of 1×10^4 cells/well in 100 µL of DMEM containing 10% FBS and 1% antibiotics, and […]. Plates were incubated for 24 h at 37°C in 5% CO2. Serial 2-fold dilutions of peptide solutions (100 µL) in DMEM were added; wells containing cells without peptides served as controls. After incubating plates for 1 d, 20 µL of MTT solution (5 mg/mL) was added to each well, and the plates were incubated for an additional 4 h at 37°C. Precipitated MTT formazan was dissolved by adding 100 µL of dimethyl sulfoxide. Absorbance at 570 nm was measured using an enzyme-linked immunosorbent assay (ELISA) reader (Molecular Devices; Sunnyvale, CA). Cell survival, expressed as a percentage, was calculated as the ratio of A570 for cells treated with peptide to that of cells without peptide treatment.

Row | Sequence | MIC (P. aeruginosa KCTC1637) | MIC (MDRST CCARM 8007) | MIC (B. subtilis KCTC1022) | Average MIC [1] | MIC (MDRPA CCARM 2003) | MIC (P. aeruginosa KCTC2004) | MIC (MRSA CCARM 3126) | MIC (E.coli KCTC2571) | MIC (MDRAB CCARM 12036) | MIC (B. subtilis KCTC1021) | MIC (MDRPA CCARM 2095) | MIC (P. aeruginosa KCTC2513) | MIC (MRSA CCARM 3090) | MIC (MDRAB CCARM 12005) | MIC (S. epidermidis KCTC1917) | MIC (S. aureus KCTC1916) | MIC (MDRST CCARM 8003) | MIC (S. aureus KCTC3881) | MIC (S. typhimurium KCTC1926) | MIC (MRSA CCARM3089) | further results
1 | AFHHIFRGIVHVGKTIHRLVTG [Pis-F1A] | 4.0 µM | 8.0 µM | 1.0 µM | 5.3 µM | 2.0 µM | 4.0 µM | 8.0 µM | 2.0 µM | 2.0 µM | 4.0 µM | 2.0 µM | 8.0 µM | 8.0 µM | 2.0 µM | 2.0 µM | 1.0 µM | 8.0 µM | 2.0 µM | 8.0 µM | 8.0 µM | MIC (MDRST CCARM 8009): 8.0 µM; MIC (B. subtilis KCTC3068): 4.0 µM; MIC (MDREC CCARM 1229): 8.0 µM; MIC (S. aureus KCTC1621): 1.0 µM; MIC (MDRAB CCARM 12037): 2.0 µM; MIC (MDRPA CCARM 2163): 2.0 µM; MIC (MDRPA CCARM 2002): 2.0 µM; Average MIC [2]: 3.2 µM; MIC (E. coli KCTC1682): 2.0 µM; MIC (MDRAB CCARM 12035): 2.0 µM; MIC (MRSA CCARM 3114): 8.0 µM; MIC (MRSA CCARM 3108): 8.0 µM; MIC (E. coli KCTC2593): 2.0 µM; MIC (MDREC CCARM 1238): 8.0 µM
2 | FFHHIFRGIVHVGKTIHRLVTG [Pis-1, reference compound] |  |  |  |  |  |  |  |  |  |  |  |  |  |  |  |  |  |  |  |  | MHC (minimal peptide concentration that produced hemolysis) ([3]; pH 7.4): 1.6 µM; Hemolysis ([3]; peptide at its MIC, hRBCs): produced hemolysis even at its MIC; Survival rate of NIH3T3 cells (NIH3T3 cells; 6.25 µM peptide): 64%; Survival rate of NIH3T3 cells (NIH3T3 cells; 12.5 µM peptide): 49%; Survival rate of NIH3T3 cells (NIH3T3 cells; 25 µM peptide): 37%; Survival rate of NIH3T3 cells (NIH3T3 cells; 50 µM peptide): 11%
3 | FAHHIFRGIVHVGKTIHRLVTG [Pis-F2A] | 4.0 µM | 16 µM | 1.0 µM | 12 µM | 4.0 µM | 8.0 µM | 16 µM | 2.0 µM | 4.0 µM | 8.0 µM | 4.0 µM | 8.0 µM | 16 µM | 4.0 µM | 2.0 µM | 1.0 µM | 32 µM | 2.0 µM | 16 µM | 16 µM | MIC (MDRST CCARM 8009): 16 µM; MIC (B. subtilis KCTC3068): 4.0 µM; MIC (MDREC CCARM 1229): 16 µM; MIC (S. aureus KCTC1621): 4.0 µM; MIC (MDRAB CCARM 12037): 4.0 µM; MIC (MDRPA CCARM 2163): 4.0 µM; MIC (MDRPA CCARM 2002): 4.0 µM; Average MIC [2]: 4.6 µM; MIC (E. coli KCTC1682): 2.0 µM; MIC (MDRAB CCARM 12035): 4.0 µM; MIC (MRSA CCARM 3114): 16 µM; MIC (MRSA CCARM 3108): 16 µM; MIC (E. coli KCTC2593): 2.0 µM; MIC (MDREC CCARM 1238): 16 µM
